Laboratory results published in patent US20230141603A1, “BENZODIAZEPINE DERIVATIVES AS GABA A GAMMA1 PAM” (Hoffmann-La Roche Inc., priority 2021, published 2023).

Each compound was assayed against T1, h-GABAA α2β2γ1 (Homo sapiens, UniProt P47869+Q8N1C3) (assay: Radioligand binding assay, [3H]RO7239181 competition, HEK293F membranes).
T1 sequence (P47869 29-451): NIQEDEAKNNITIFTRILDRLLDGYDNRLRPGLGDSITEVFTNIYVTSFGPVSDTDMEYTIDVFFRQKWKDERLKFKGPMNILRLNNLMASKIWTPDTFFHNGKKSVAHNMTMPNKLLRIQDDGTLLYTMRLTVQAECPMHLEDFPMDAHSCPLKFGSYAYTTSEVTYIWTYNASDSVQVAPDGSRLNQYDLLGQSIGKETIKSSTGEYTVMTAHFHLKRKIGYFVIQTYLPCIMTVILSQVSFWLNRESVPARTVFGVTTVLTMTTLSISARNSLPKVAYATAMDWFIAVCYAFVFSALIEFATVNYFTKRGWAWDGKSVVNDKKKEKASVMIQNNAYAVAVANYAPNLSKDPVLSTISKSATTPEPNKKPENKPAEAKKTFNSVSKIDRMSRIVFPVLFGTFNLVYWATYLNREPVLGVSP
T1 sequence (P47870 25-512 partner limits assumed): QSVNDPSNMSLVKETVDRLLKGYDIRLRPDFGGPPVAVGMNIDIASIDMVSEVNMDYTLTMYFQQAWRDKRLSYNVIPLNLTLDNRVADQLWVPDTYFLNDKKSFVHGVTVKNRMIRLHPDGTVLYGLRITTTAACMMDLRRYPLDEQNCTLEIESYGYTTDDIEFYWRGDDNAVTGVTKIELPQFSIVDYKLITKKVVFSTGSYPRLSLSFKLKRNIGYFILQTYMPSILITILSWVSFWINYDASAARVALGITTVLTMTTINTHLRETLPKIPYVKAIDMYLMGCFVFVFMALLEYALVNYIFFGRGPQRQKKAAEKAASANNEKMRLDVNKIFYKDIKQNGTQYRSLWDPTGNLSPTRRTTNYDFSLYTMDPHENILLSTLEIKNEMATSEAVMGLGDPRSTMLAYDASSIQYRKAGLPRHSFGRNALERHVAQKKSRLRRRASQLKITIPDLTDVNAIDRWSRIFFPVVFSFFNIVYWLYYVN
T1 sequence (Q8N1C3 36-465): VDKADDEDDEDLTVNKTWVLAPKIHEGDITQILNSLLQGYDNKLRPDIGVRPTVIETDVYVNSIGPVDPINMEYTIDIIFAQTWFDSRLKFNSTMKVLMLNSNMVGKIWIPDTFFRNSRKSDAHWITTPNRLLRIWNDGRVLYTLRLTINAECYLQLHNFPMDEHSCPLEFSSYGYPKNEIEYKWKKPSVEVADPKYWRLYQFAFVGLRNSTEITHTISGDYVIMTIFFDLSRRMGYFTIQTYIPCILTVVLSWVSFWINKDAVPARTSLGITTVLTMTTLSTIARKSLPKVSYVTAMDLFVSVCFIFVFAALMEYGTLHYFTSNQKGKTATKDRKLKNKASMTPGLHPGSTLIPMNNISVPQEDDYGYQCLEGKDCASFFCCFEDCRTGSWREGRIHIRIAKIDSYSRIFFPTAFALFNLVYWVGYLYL
Design: signal peptide of human GABAA α5 subunit (Met1 to Ser31), replacing the α2 signal peptide (N); expressed in transfected cells; host or cells: HEK293F cells (ThermoFisher R79007), membranes

In order of falling Ki:
1. Cc1ncc2n1-c1ccc(Cl)cc1C(c1ccccc1F)=NC2 [Midazolam, reference compound]  738 nM
2. COc1ccc2c(c1Cl)C(c1c(F)cccc1F)=NCc1nnc(-c3ccncn3)n1-2 [Example 61, 7-chloro-6-(2,6-difluorophenyl)-8-methoxy-1-pyrimidin-4-yl-4H-[1,2,4]triazolo[4,3-a][1,4]benzodiazepine]  77.6 nM
3. Fc1cccnc1C1=NCc2nnc(C3CC3)n2-c2ccc(Cl)c(Cl)c21 [Example 65, 7,8-dichloro-1-cyclopropyl-6-(3-fluoro-2-pyridyl)-4H-[1,2,4]triazolo[4,3-a][1,4]benzodiazepine]  64.9 nM
4. Fc1cccnc1C1=NCc2nnc(-c3ccncn3)n2-c2ccc(C(F)(F)F)c(Cl)c21 [Example 69, 7-chloro-6-(3-fluoro-2-pyridyl)-1-pyrimidin-4-yl-8-(trifluoromethyl)-4H-[1,2,4]triazolo[4,3-a][1,4]benzodiazepine]  63.6 nM
5. COc1ccc2c(c1Cl)C(c1c(F)cccc1F)=NCc1nnc(-c3cccnn3)n1-2 [Example 57, 7-chloro-6-(2,6-difluorophenyl)-8-methoxy-1-pyridazin-3-yl-4H-[1,2,4]triazolo[4,3-a][1,4]benzodiazepine]  57.9 nM
6. COc1ccc2c(c1Cl)C(c1c(F)cccc1F)=NCc1nnc(-c3cccnc3)n1-2 [Example 62, 7-chloro-6-(2,6-difluorophenyl)-8-methoxy-1-(3-pyridyl)-4H-[1,2,4]triazolo[4,3-a][1,4]benzodiazepine]  55.3 nM
7. COc1ccc2c(c1Cl)C(c1c(F)cccc1F)=NCc1nnc(C3CC3)n1-2 [Example 79, 7-chloro-1-cyclopropyl-6-(2,6-difluorophenyl)-8-methoxy-4H-[1,2,4]triazolo[4,3-a][1,4]benzodiazepine]  51.2 nM
8. Cc1nnc2n1-c1ccc(C(F)(F)F)c(Cl)c1C(c1ncccc1F)=NC2 [Example 78, 7-chloro-6-(3-fluoro-2-pyridyl)-1-methyl-8-(trifluoromethyl)-4H-[1,2,4]triazolo[4,3-a][1,4]benzodiazepine]  50.8 nM
9. Cn1cc(-c2nnc3n2-c2ccc(C(F)(F)F)c(Cl)c2C(c2ncccc2F)=NC3)cn1 [Example 70, 7-chloro-6-(3-fluoro-2-pyridyl)-1-(1-methylpyrazol-4-yl)-8-(trifluoromethyl)-4H-[1,2,4]triazolo[4,3-a][1,4]benzodiazepine]  41.4 nM
10. Fc1cccnc1C1=NCc2nncn2-c2ccc(Cl)c(Cl)c21 [Example 60, 7,8-dichloro-6-(3-fluoro-2-pyridyl)-4H-[1,2,4]triazolo[4,3-a][1,4]benzodiazepine]  38.9 nM
11. Cc1nnc2n1-c1ccc(Cl)c(Cl)c1C(c1ncccc1F)=NC2 [Example 71, 7,8-dichloro-6-(3-fluoro-2-pyridyl)-1-methyl-4H-[1,2,4]triazolo[4,3-a][1,4]benzodiazepine]  37.6 nM
12. CO[C@H]1C[C@H](c2nnc3n2-c2ccc(Cl)c(Cl)c2C(c2c(F)cccc2F)=NC3)C1 [Example 91, trans-7,8-dichloro-6-(2,6-difluorophenyl)-1-(3-methoxycyclobutyl)-4H-[1,2,4]triazolo[4,3-a][1,4]benzodiazepine]  36.3 nM
13. Cn1cc(-c2nnc3n2-c2ccc(Cl)c(Cl)c2C(c2ncccc2F)=NC3)cn1 [Example 58, 7,8-dichloro-6-(3-fluoro-2-pyridyl)-1-(1-methylpyrazol-4-yl)-4H-[1,2,4]triazolo[4,3-a][1,4]benzodiazepine]  33.1 nM
14. Fc1cccnc1C1=NCc2nnc(-c3cccnn3)n2-c2ccc(Cl)c(Cl)c21 [Example 54, 7,8-dichloro-6-(3-fluoro-2-pyridyl)-1-pyridazin-3-yl-4H-[1,2,4]triazolo[4,3-a][1,4]benzodiazepine]  30.2 nM
15. Fc1cccnc1C1=NCc2nnc(-c3cccnn3)n2-c2ccc(C(F)(F)F)c(Cl)c21 [Example 72, 7-chloro-6-(3-fluoro-2-pyridyl)-1-pyridazin-3-yl-8-(trifluoromethyl)-4H-[1,2,4]triazolo[4,3-a][1,4]benzodiazepine]  30.1 nM
16. O=c1[nH]nc2n1-c1ccc(Cl)c(Cl)c1C(c1ncccc1F)=NC2 [Example 59, 7,8-dichloro-6-(3-fluoro-2-pyridyl)-2,4-dihydro-[1,2,4]triazolo[4,3-a][1,4]benzodiazepin-1-one]  26.3 nM
17. Fc1cccnc1C1=NCc2nnc(C3CC3)n2-c2ccc(Br)c(Cl)c21 [Example 77, 8-bromo-7-chloro-1-cyclopropyl-6-(3-fluoro-2-pyridyl)-4H-[1,2,4]triazolo[4,3-a][1,4]benzodiazepine]  19.6 nM
18. Fc1cccnc1C1=NCc2nnc(-c3ccncn3)n2-c2ccc(Cl)c(Cl)c21 [Example 55, 7,8-dichloro-6-(3-fluoro-2-pyridyl)-1-pyrimidin-4-yl-4H-[1,2,4]triazolo[4,3-a][1,4]benzodiazepine]  18.5 nM
19. COc1nnc2n1-c1ccc(Cl)c(Cl)c1C(c1c(F)cccc1F)=NC2 [Example 90, 7,8-dichloro-6-(2,6-difluorophenyl)-1-methoxy-4H-[1,2,4]triazolo[4,3-a][1,4]benzodiazepine]  5.8 nM
20. Cc1nnc2n1-c1ccc(Br)c(Cl)c1C(c1c(F)cccc1Cl)=NC2 [Example 50, 8-bromo-7-chloro-6-(2-chloro-6-fluoro-phenyl)-1-methyl-4H-[1,2,4]triazolo[4,3-a][1,4]benzodiazepine]  4.7 nM
21. Fc1cccc(F)c1C1=NCc2nnc(-c3cccnn3)n2-c2ccc(Br)c(Cl)c21 [Example 104, 8-bromo-7-chloro-6-(2,6-difluorophenyl)-1-pyridazin-3-yl-4H-[1,2,4]triazolo[4,3-a][1,4]benzodiazepine]  2.3 nM
